Laboratory results from US11357782B2, “Treprostinil administration by inhalation” (priority 2006, dated 2022).
“Also recorded” adds a separate entry of the source.

Assays:
[1] = test system: patients with moderate to severe precapillary pulmonary hypertension; experiment: Acute vasodilator challenge during right heart catheter investigation: inhaled treprostinil applied by soft mist inhaler (Example 1); conditions: for CO (max) / HR (max) / SvO2 (max): highest value; for CO (max) / HR (max) / SvO2 (max) / PAP (min) / PVR (min) / SAP (min) / SVR (min) / SaO2 (min): mean ± SEM; for PAP (min): lowest value during 120 min observation; for PVR (min) / SAP (min) / SVR (min) / SaO2 (min): lowest value; for pulmonary vascular resistance (PVR) reduced to: Respimat SMI, mean±95% confidence interval
Description: A study was conducted of acute vasodilator challenge during right heart catheter investigation to determine the safety, tolerability and pulmonary vasodilatory potency of inhaled treprostinil applied in seconds by a soft mist inhaler (SMI-TRE).
Inhaled nitric oxide (20 ppm; n=45) and inhaled treprostinil sodium (TRE; n=41) or placebo (n=4) were applied once during right heart catheter investigation. TRE was delivered in 2 breaths (1000 μg/ml aerosol concentration; 30 μg dose; n=12), 3 breaths (1000 μg/ml; 45 μg; n=9) or 2 breaths (2000m/m1; 60 μg; n=20) from a Respimat® SMI. Pulmonary hemodynamics and blood gases were measured at defined time points, observation time following TRE application was 120 minutes.
• A total number of 45 patients with moderate to severe precapillary pulmonary hypertension were enrolled. […] Disease etiologies were idiopathic PAH (iPAH) (n=13), PAH other (n=11), chronic thromboembolic pulmonary hypertension (CTEPH) (n=17) and pulmonary fibrosis (n=4).
Baseline values were determined 20-30 minutes after placement of the catheter. Heart rate, pulmonary and systemic blood pressure and cardiac output were measured and blood gases were taken during each pharmacological intervention at defined time points. Pharmacological interventions included the inhalation of 20 ppm nitric oxide (NO) after evaluation of baseline parameters (n=45) and the consecutive inhalation of placebo (n=4), 30 μg SMI-TRE (n=12), 45 μg SMI-TRE (n=9) or 60 μg (n=20) SMI-TRE. Placebo and treprostinil was applied with the Respimat® SMI. For filling of this device with treprostinil sodium, the placebo solution was withdrawn from the device with a syringe and treprostinil solution was injected into the device under sterile conditions. Aerosol quality was controlled before and after refilling of the SMI devices by laser diffractometry, see e.g. Gessler T., Schmehl T., Hoeper M.M., Rose F., Ghofrani H.A., Olschewski H. et al. Ultrasonic versus jet nebulization of iloprost in severe pulmonary hypertension. Eur. Respir. J. 2001; 17:14-19 incorporated herein in its entirety. […] The aerosol volume delivered by one cycle from the SMI was 15 μl. The solution used for aerosol generation was prepared from treprostinil sodium salt using a standard protocol. The SMI was either filled with a concentration of 1000 μg/ml treprostinil sodium (one aerosol puff=15 μg TRE) or with 2000 μg/ml (one puff=30 μg TRE). The different doses were applied as 2 puffs 1000 μg/ml (30 μg), 3 puffs 1000m/m1 (45 μg) and 2 puffs 2000 μg/ml (60 μg). The placebo was inhaled as 2 puffs from a placebo-SMI. Hemodynamics and gas-exchange parameters were recorded for 120 minutes after TRE inhalation.

[2] = test system: patients with severe pulmonary hypertension; experiment: Study iii) reduction of inhalation time at fixed 15 μg dose, pulsed ultrasonic nebulizer
Description: Study iii) was a randomized, open-label, single blind study. The primary objective was to explore the shortest possible inhalation time for a 15 μg dose of inhaled treprostinil. A total of 48 patients inhaled one dose of TRE during right heart catheter investigation. The drug was applied in 18, 9, 3, 2 or 1 breaths. The aerosol was generated by a pulsed ultrasonic nebulizer (OPTINEB®, Nebutec, Elsenfeld, Germany) in cycles consisting of 2 seconds aerosol production (pulse) and 4 seconds pause. The device included an opto-acoustical trigger for the patient to synchronize the inspiration to the end of the aerosol pulse, thereby providing exact dosage. The TRE dose of 15 μg was either generated during 18 cycles (OPTINEB® filled with 100 μg/ml TRE, n=6), 9 cycles (200 μg/ml TRE, n=6), 3 cycles (600 μg/ml TRE, n=21), 2 cycles (1000m/m1 TRE, n=7) or 1 cycle (2000 μg/ml TRE, n=8). Hemodynamics and gas exchange were recorded for 120-180 minutes.

[3] = 15 μg, 1 pulse, 2000 μg/ml, n=8
[4] = 15 μg, 2 pulses, 1000 μg/ml, n=7
[5] = 15 μg, 3 pulses, 600 μg/ml, n=21
[6] = 15 μg, 9 pulses, 200 μg/ml, n=6
[7] = 15 μg, 18 pulses, 100 μg/ml, n=6

CCCCC[C@H](O)CC[C@@H]1[C@H]2Cc3cccc(OCC(=O)[O-])c3C[C@H]2C[C@H]1O.[Na+] [TRE]
120 minute area under the curve for PVR ([1]; 30 μg TRE): −870±940 min %
duration of effect on pulmonary vascular resistance ([1]; 30 μg TRE, compared with 45 and 60 μg): somewhat shorter effect
CO (max) ([1]; 30 μg TRE, n=12): 108.8 ± 3.8% of baseline values
HR (max) ([1]; 30 μg TRE, n=12): 106.1 ± 2.9% of baseline values
SvO2 (max) ([1]; 30 μg TRE, n=12): 102.4 ± 1.3% of baseline values
PAP (min) ([1]; 30 μg TRE, n=12): 83.4 ± 3.2% of baseline values
PVR (min) ([1]; 30 μg TRE, n=12): 84.4 ± 4.4% of baseline values
SAP (min) ([1]; 30 μg TRE, n=12): 97.3 ± 1.9% of baseline values
SVR (min) ([1]; 30 μg TRE, n=12): 97.7 ± 4.2% of baseline values
SaO2 (min) ([1]; 30 μg TRE, n=12): 101 ± 0.3% of baseline values
pulmonary vascular resistance (PVR) reduced to ([1]; 30 μg, 2 breaths 1000 μg/ml): 84.4±8.7 % of baseline values
120 minute area under the curve for PVR ([1]; 45 μg TRE): −2450±2070 min %
CO (max) ([1]; 45 μg TRE, n=9): 108.6 ± 5.6% of baseline values
HR (max) ([1]; 45 μg TRE, n=9): 99.1 ± 2.4% of baseline values
SvO2 (max) ([1]; 45 μg TRE, n=9): 104.5 ± 4.4% of baseline values
PAP (min) ([1]; 45 μg TRE, n=9): 77.6 ± 6.8% of baseline values
PVR (min) ([1]; 45 μg TRE, n=9): 71.4 ± 8.9% of baseline values
SAP (min) ([1]; 45 μg TRE, n=9): 96.1 ± 1.5% of baseline values
SVR (min) ([1]; 45 μg TRE, n=9): 92 ± 3.9% of baseline values
SaO2 (min) ([1]; 45 μg TRE, n=9): 94.4 ± 1.8% of baseline values
pulmonary vascular resistance (PVR) reduced to ([1]; 45 μg, 3 breaths 1000 μg/ml): 71.4±17.5 % of baseline values
120 minute area under the curve for PVR ([1]; 60 μg TRE): −2000±900 min %
CO (max) ([1]; 60 μg TRE, n=20): 103.8 ± 2.0% of baseline values
HR (max) ([1]; 60 μg TRE, n=20): 101.1 ± 0.9% of baseline values
SvO2 (max) ([1]; 60 μg TRE, n=20): 102 ± 1.0% of baseline values
PAP (min) ([1]; 60 μg TRE, n=20): 79.5 ± 2.4% of baseline values
PVR (min) ([1]; 60 μg TRE, n=20): 77.5 ± 3.7% of baseline values
SAP (min) ([1]; 60 μg TRE, n=20): 93.6 ± 2.9% of baseline values
SVR (min) ([1]; 60 μg TRE, n=20): 91.3 ± 2.1% of baseline values
SaO2 (min) ([1]; 60 μg TRE, n=20): 95.8 ± 0.9% of baseline values
pulmonary vascular resistance (PVR) reduced to ([1]; 60 μg, 2 breaths): 77.5±7.2 % of baseline values
effect on systemic vascular resistance and pressure ([1]; 30-60 μg from Respimat SMI): very small and not clinically significant
systemic side effects ([1]; 30-60 μg from Respimat SMI): No systemic side effects
tolerability / side effects ([1]; 30-60 μg from Respimat SMI, listed as SMI-TRE): No significant side effects; also recorded: well tolerated; also recorded: only mild and transient cough for a maximum of one minute
duration of PVR reduction / pulmonary vasodilation ([1]; 45 and 60 μg, single inhalation of 2-3 breaths, outlasted observation time): > 120 min
cardiac output ([1]; 120 min observation period): significantly increased
gas exchange ([1]; 120 min observation period): not influenced
heart rate ([1]; 120 min observation period): rather unchanged
reported side effects ([2]; 15 μg, 48 patients, cough n=6, headache n=2, jaw pain n=1): mild transient cough; also recorded: mild headache; also recorded: mild jaw pain
cardiac output ([2]; 15 μg, all groups): moderately increased
systemic arterial pressure ([2]; 15 μg, all groups): not significantly affected
PAP reduced to [2, 3]: 88±5.4%
PVR reduced to [2, 3]: 80.3±5.2%
PAP reduced to [2, 4]: 86±4%
PVR reduced to [2, 4]: 77.4±4.5%
PAP reduced to [2, 5]: 81.1±4.1%
PVR reduced to [2, 5]: 71.2±6.0%
PAP reduced to [2, 6]: 84.2±4.1%
PVR reduced to [2, 6]: 72.9±4.9%
PAP reduced to [2, 7]: 84.2±4.5%
PVR reduced to [2, 7]: 76.3±5.6%
concentration safely utilized without considerable side effects ([2]; metacresol-free TRE solution, modified OPTINEB): ≤ 2000 µg/mL
duration of pulmonary vasodilation ([2]; single breath of 2000 μg/ml, 15 μg, compared to placebo inhalation): > 3 h
